Measured values reported in patent publication US9550976B2, “Methods for compact aggregation of dermal cells” (THE TRUSTEES OF COLUMBIA UNIVERSITY IN THE CITY OF NEW YORK, priority 2006, dated 2017).

What was measured:
[1] = system: hair follicle morphogenesis in embryonic skin cultures; assay: Mouse embryonic skin organ culture, effects of reduced HA on hair follicle morphogenesis; type: cell-based; settings: for in vivo skin stage to which the cultured skin / follicles correspond: after 72 hr in culture of 14.5 dpc skin, histology and syndecan-1 pattern
Method: To study the effects of HA misexpression in the development of a HF, an embryonic skin organ culture model was utilized. To assess how representative this model was for investigating the role of HA distribution in vivo, the expression of CD44 and HA in the cultured embryonic skin was first investigated. Embryonic skin cultures were established using pre-hair follicle initiation (14.5 dpc) skin and were incubated for 72 hrs. The cultured skin hair placodes became visible after 24 hr in culture. After 72 hr, skins were removed from culture, sectioned, and the expression of both HA and CD44 were assessed (FIG. 19). The dermal condensate was negative for HA staining (red) while expressing CD44 (green). Expression of both proteins in the HF of the cultured backskin was virtually indiscernible from that of 16.5 dpc back skin in vivo (FIG. 19). The effects of HA synthesis downregulation of hair follicle morphogenesis was investigated. Embryonic skin was cultured for 72 hrs in the presence of BSA (control) or one of two HAS inhibitors, leflunomide (Lef) (50 nM) or 4-methylumbelliferone (30 mM). In the presence of BSA, CD44 was localized predominantly to the dermal condensate, while HA remained absent from the dermal condensate (FIG. 20). […] To ascertain whether this reduction was due to an actual inhibitory effect of Lef on hair follicle morphogenesis and development, cultured skin from all treatments and control groups were enzymatically split and the separated epidermis inverted to allow the visualization of the developing epidermal hair germs. […] To explore the effects of a global degradation of HA protein on hair follicle morphogenesis within the skin cultures, embryonic skin was cultured for 72 hrs in the presence of either BSA (control) or hyaluronanase (HAase) (25 units/ml). […] Following 72 hrs in culture, embryonic skin from the four treatments described above were cryo-embedded, sectioned, and stained with hematoxylin and eosin (H&E) for histological study. […] After 72 hr in culture, follicles corresponded to those found in 14.5 dpc skin in vivo, both histologically and in their syndecan-1 expression patterns (FIG. 22).

hair follicle formation = settings: whole skin organ culture; as previously shown (Kashiwagi 1997); cited from earlier work
[2] = Lef 50 nM, 4-methylumbelliferone 30 mM
[3] = embryonic skin cultured 72 hrs, Lef 50 nM, 4-methylumbelliferone 30 mM, HAase 25 units/ml
[4] = embryonic skin cultured 72 hrs, Lef 50 nM, 4-methylumbelliferone 30 mM, HAase 25 units/ml, vs BSA control

Molecule | in vivo skin stage to which the cultured skin / follicles correspond [1, 2] [dpc] | histology (H&E) of cultured skin [1, 3] | number of visible follicles on the surface of the skin [1, 4] | size and number of epidermal hair germs on the inverted, enzymatically separated epidermis ([1]; embryonic skin cultured 72 hrs, Lef 50 nM, HAase 25 units/ml, vs BSA control) | Syndecan-1 expression (marker of the dermal condensation) ([1]; embryonic skin cultured 72 hrs, 4-methylumbelliferone 30 mM, HAase 25 units/ml) | hair follicle formation (hair follicle formation)
Cc1oncc1C(=O)Nc1ccc(C(F)(F)F)cc1 [Lef, leflunomide] | 14.5 | inhibition of follicle development | reduction in the number of visible follicle on the surface of the skin | smaller and sparser than those of the control |  | 
Cc1cc(=O)oc2cc(O)ccc12 [4-methylumbelliferone] | 16.5 | indistinguishable from the control skin | no effect on the number of visible follicles |  | normal hair follicle development | 
EGF: growth factor used to inhibit hair follicle formation in skin organ culture (NSYPGCPSSYDGYCLNGGVCMHIESLDSYTCNCVIGYSGDRCQTRDLRWWELR; UniProt P01132 977-1029, looked up) |  |  |  |  |  | completely inhibited
